Data set [1] can be described thus: Stability of standard and sample solutions (4 mg/mL) for the HPLC method. It counts as physicochemical. Conditions: 4 mg/mL in DI water:acetonitrile 50:50 v/v, ambient laboratory conditions. The method, then: Diluent (DI Water:Acetonitrile, 50:50, v/v).
Note: Standard solutions are stable for 4 days at ambient laboratory conditions.
Working Standard Solution (4 mg/mL of compound of Formula I).
Note: Sample solutions are stable for 4 days at ambient laboratory conditions.
Sample Solution (4 mg/mL of compound of Formula I).

Data set [2] in a line: Particle size distribution of manufacturing batches of the compound of Formula I. It counts as physicochemical. Conditions: crystalline Form I batches. The text has this: Manufacturing batches of(2R,3R,11bR)-3-isobutyl-9,10-dimethoxy-2,3,4,6,7,11b-hexahydro-1H-pyrido[2,1-a]isoquinolin-2-yl (S)-2-amino-3-methylbutanoate di(4-methylbenzenesulfonate) (i.e., the compound of Formula I) have been prepared in a similar manner as described herein and have the following particle size distribution characterizations, as shown in Table 3.
Four separate batches of (2R,3R,11bR)-3-Isobutyl-9,10-dimethoxy-2,3,4,6,7,11b-hexahydro-1H-pyrido[2,1-a]isoquinolin-2-yl (S)-2-amino-3-methylbutanoate di(4-methylbenzenesulfonate) were manufactured in a similar manner as described herein (i.e., Example 1) in compliance with applicable cGMPs for GLP use. Certain data are shown below in Table 10 for Example 1, Step E (i.e., Batch 073) and the four batches (i.e., Batches 084, 085, 086, and 087).

Setting [3] is: Table 3, listed as Batch 073, di(4-methylbenzenesulfonate).
The mark [4] stands for this setting: Table 3, listed as Batch 084, di(4-methylbenzenesulfonate).
Setting [5] is: Table 3, listed as Batch 085, di(4-methylbenzenesulfonate).
Setting [6] is: Table 3, listed as Batch 086, di(4-methylbenzenesulfonate).
Setting [7] is: Table 3, listed as Batch 087, di(4-methylbenzenesulfonate).
Where [8] appears, read: Table 10, listed as Batch 073, di(4-methylbenzenesulfonate).
Where [9] appears, read: Table 10, listed as Batch 084, di(4-methylbenzenesulfonate).
Where [10] appears, read: Table 10, listed as Batch 085, di(4-methylbenzenesulfonate).
[11] abbreviates: Table 10, listed as Batch 086, di(4-methylbenzenesulfonate).
[12] abbreviates: Table 10, listed as Batch 087, di(4-methylbenzenesulfonate).

Each structure is given as a SMILES string.

For the compound `COc1cc2c(cc1OC)[C@H]1C[C@@H](OC(=O)[C@@H](N)C(C)C)[C@H](CC(C)C)CN1CC2` [Compound of Formula I, (2R,3R,11bR)-3-isobutyl-9,10-dimethoxy-2,3,4,6,7,11b-hexahydro-1H-pyrido[2,1-a]isoquinolin-2-yl (S)-2-amino-3-methylbutanoate di(4-methylbenzenesulfonate)], the “Time for which solutions are stable” value in data set [1] was found to be 4 days. For the same compound, the figures for the Particle size distribution, D10 in data set [2] (Table 3) and in data set [2] (Table 10) were 3 µm and 3 μm, respectively. For the same compound, the Particle size distribution, D50 is 14 µm in data set [2] (setting [3]); 13 µm in data set [2] (setting [4]); 13 µm in data set [2] (setting [5]); 14 µm in data set [2] (setting [6]); 13 µm in data set [2] (setting [7]); 14 μm in data set [2] (setting [8]). Also, the “Particle size distribution, D50” value in data set [2] (setting [9]) amounted to 13 μm; in data set [2] (setting [10]), 13 μm; in data set [2] (setting [11]) it was 14 μm; in data set [2] (setting [12]), 13 μm. Moreover, the Particle size distribution, D90 in data set [2] (setting [3]) came to 45 µm; in data set [2] (setting [4]), 43 µm; in data set [2] (setting [5]), 44 µm; in data set [2] (setting [6]), 48 µm; in data set [2] (setting [7]), 45 µm; in data set [2] (setting [8]), 45 μm. The “Particle size distribution, D90” value in data set [2] (setting [9]) turned out to be 43 μm; in data set [2] (setting [10]), 44 μm; in data set [2] (setting [11]), 48 μm; in data set [2] (setting [12]), 45 μm.

These data come from patent publication US20220363680A1, “PROCESSES FOR THE SYNTHESIS OF VALBENAZINE” (Neurocrine Biosciences, Inc., priority 2019, published 2022).
